Measurements from patent publication US20070128217A1 (priority 2003, published 2007).

Tests used:
[1] = test system: antibodies in sera from SARS patients (sera 1a, 1b, 2, 6, 37, 62, London, SARS-yellow, SARS-green); assay type: binding, human; parameters: Binding of serum 6 to linear peptides of protein X1 of SARS-CoV Urbani / Binding of serum 37 to linear peptides of protein X1 of SARS-CoV Urbani / Binding of serum 6 to looped/cyclic peptide (PEPSCAN-ELISA) / Binding of serum 37 to looped/cyclic peptide (PEPSCAN-ELISA) / Binding of serum 37 to looped/cyclic peptides of protein X1 of SARS-CoV Urbani / Binding of serum 6 to linear peptides of protein X2 / Binding of serum 37 to linear peptides of protein X2 / Binding of serum 37 to looped/cyclic peptides of protein X2 of SARS-CoV Urbani / Binding of serum 6 to linear peptides of protein M of SARS-CoV Urbani / Binding of serum 37 to linear peptides of protein M of SARS-CoV Urbani / Binding of serum 6 to looped/cyclic peptides of protein M of SARS-CoV Urbani / Binding of serum 37 to looped/cyclic peptides of protein M of SARS-CoV Urbani / Binding of serum 6 to linear peptides of protein X3 of SARS-CoV Urbani / Binding of serum 37 to linear peptides of protein X3 of SARS-CoV Urbani / Binding of serum 37 to looped/cyclic peptides of protein X3 of SARS-CoV Urbani / Binding of serum 6 to linear peptides of protein X4 of SARS-CoV Urbani / Binding of serum 37 to linear peptides of protein X4 of SARS-CoV Urbani / Binding of serum 37 to looped/cyclic peptides of protein X4 of SARS-CoV Urbani / Binding of serum 6 to linear peptides of protein X5 of SARS-CoV Urbani / Binding of serum 37 to linear peptides of protein X5 of SARS-CoV Urbani / Binding of serum 37 to looped/cyclic peptides of protein X5 of SARS-CoV Urbani / Binding of serum 6 to linear peptides of protein N of SARS-CoV Urbani / Binding of serum 37 to linear peptides of protein N of SARS-CoV Urbani / Binding of serum 6 to linear peptide (PEPSCAN-ELISA) / Binding of serum 1a to looped/cyclic peptides of protein N of SARS-CoV Urbani / Binding of serum 1b to looped/cyclic peptides of protein N of SARS-CoV Urbani / Binding of serum 2 to looped/cyclic peptides of protein N of SARS-CoV Urbani / Binding of serum 6 to looped/cyclic peptides of protein N of SARS-CoV Urbani / Binding of serum 37 to looped/cyclic peptides of protein N of SARS-CoV Urbani / Binding of serum 62 to looped/cyclic peptides of protein N of SARS-CoV Urbani / Binding of serum London to looped/cyclic peptides of protein N of SARS-CoV Urbani / Binding of serum SARS-green to looped/cyclic peptides of protein N of SARS-CoV Urbani: unit not given here
[2] = test system: control sera (pooled serum of ten healthy LUMC hospital workers; commercial negative donor pooled serum from the Dutch bloodbank); assay type: binding, human; parameters: Binding of Control serum LUMC to linear peptides / Binding of Control serum Blood-bank to linear peptides / Binding of Control serum LUMC to looped peptides / Binding of Control Serum Blood-Bank to Looped peptides / Binding of Control serum LUMC to linear peptides of the protein M of SARS-CoV Urbani / Binding of Control serum Blood-bank to linear peptides of the protein M of SARS-CoV Urbani / Binding of Control serum LUMC to looped peptides of the protein M of SARS-CoV Urbani / Binding of Control Serum Blood-Bank to Looped peptides of the protein M of SARS-CoV Urbani: unit not given here
[3] = test system: rabbit serum obtained by immunizing a rabbit with the SARS-CoV strain Frankfurt 1; assay type: binding; parameters: Binding of a rabbit serum to linear peptides / Binding of a rabbit serum to looped peptides / Rabbit serum linear peptides / Rabbit serum looped peptides / Binding of a rabbit serum to linear peptides of protein N of SARS-CoV Urbani (Rabbit serum linear peptides) / Binding of a rabbit serum to looped/cyclic peptides of protein N of SARS-CoV Urbani (Rabbit serum looped peptides): unit not given here
[4] = test system: recombinant human anti-SARS-CoV antibody 03-018; assay type: binding; parameters: Binding of antibody 03-018 to linear peptides of the N protein of SARS-CoV Urbani / Binding of antibody 03-018 to looped/cyclic peptides of the N protein of SARS-CoV Urbani: unit not given here

| Sequence | Binding of serum 1a to looped/cyclic peptides of protein N of SARS-CoV Urbani [1] | Binding of serum 1b to looped/cyclic peptides of protein N of SARS-CoV Urbani [1] | Binding of serum 2 to looped/cyclic peptides of protein N of SARS-CoV Urbani [1] | Binding of serum 6 to looped/cyclic peptides of protein N of SARS-CoV Urbani [1] | Binding of serum 37 to looped/cyclic peptides of protein N of SARS-CoV Urbani [1] | Binding of serum 62 to looped/cyclic peptides of protein N of SARS-CoV Urbani [1] | Binding of serum London to looped/cyclic peptides of protein N of SARS-CoV Urbani [1] | Binding of serum SARS-green to looped/cyclic peptides of protein N of SARS-CoV Urbani [1] | Binding of serum SARS-yellow to looped/cyclic peptides of protein N of SARS-CoV Urbani [1] | Binding of Control Serum Blood-Bank to Looped peptides [2] | Binding of Control serum Blood-bank to linear peptides [2] | Binding of Control serum LUMC to linear peptides [2] | Binding of Control serum LUMC to looped peptides [2] | Binding of a rabbit serum to linear peptides of protein N of SARS-CoV Urbani (Rabbit serum linear peptides) [3] | Binding of a rabbit serum to looped/cyclic peptides of protein N of SARS-CoV Urbani (Rabbit serum looped peptides) [3] | Binding of antibody 03-018 to linear peptides of the N protein of SARS-CoV Urbani [4] | Binding of antibody 03-018 to looped/cyclic peptides of the N protein of SARS-CoV Urbani [4] | Binding of serum 1a to linear peptides of protein N of SARS-CoV Urbani [1] | Binding of serum 1b to linear peptides of protein N of SARS-CoV Urbani [1] | Binding of serum 2 to linear peptides of protein N of SARS-CoV Urbani [1] | also measured |
| --- | --- | --- | --- | --- | --- | --- | --- | --- | --- | --- | --- | --- | --- | --- | --- | --- | --- | --- | --- | --- | --- |
| YAEGSRGGSQASSRS | 0.3 | 0.2 | 0.3 | 0.2 | 0.4 | 0.2 | 0.3 | 0.3 | 0.1 | 0.4 | 0.9 | 0.7 | 0.6 | 0.2 | 0.0 | 0.1 | 0.2 |  |  |  | Binding of serum 1a to linear peptide (PEPSCAN-ELISA) [1]: 0.3; Binding of serum 1b to linear peptide (PEPSCAN-ELISA) [1]: 0.1; Binding of serum 2 to linear peptide (PEPSCAN-ELISA) [1]: 0.3; Binding of serum 6 to linear peptide (PEPSCAN-ELISA) [1]: 0.4; Binding of serum 37 to linear peptide (PEPSCAN-ELISA) [1]: 0.7; Binding of serum 62 to linear peptide (PEPSCAN-ELISA) [1]: 0.7; Binding of serum London to linear peptide (PEPSCAN-ELISA) [1]: 0.5; Binding of serum SARS-green to linear peptide (PEPSCAN-ELISA) [1]: 0.6; Binding of serum SARS-yellow to linear peptide (PEPSCAN-ELISA) [1]: 0.6 |
| YFYYLGTGPEASLPY | 0.4 | 0.3 | 0.5 | 0.3 | 0.9 | 0.7 | 0.4 | 0.4 | 0.6 | 0.7 | 0.7 | 0.6 | 0.8 | 0.1 | 0.6 | 0.1 | 0.2 | 0.3 | 0.1 | 0.3 | Binding of serum 6 to linear peptides of protein N of SARS-CoV Urbani [1]: 0.2; Binding of serum 37 to linear peptides of protein N of SARS-CoV Urbani [1]: 0.7; Binding of serum 62 to linear peptides of protein N of SARS-CoV Urbani [1]: 0.8; Binding of serum London to linear peptides of protein N of SARS-CoV Urbani [1]: 0.4; Binding of serum SARS-green to linear peptides of protein N of SARS-CoV Urbani [1]: 0.0; Binding of serum SARS-yellow to linear peptides of protein N of SARS-CoV Urbani [1]: 0.7 |
| YGANKEGIVWVATEG | 0.4 | 0.3 | 0.5 | 0.3 | 0.8 | 0.7 | 0.4 | 0.4 | 0.7 | 0.7 | 0.6 | 0.6 | 0.7 | 0.1 | 0.5 | 0.1 | 0.2 | 0.3 | 0.1 | 0.2 | Binding of serum 6 to linear peptides of protein N of SARS-CoV Urbani [1]: 0.2; Binding of serum 37 to linear peptides of protein N of SARS-CoV Urbani [1]: 0.8; Binding of serum 62 to linear peptides of protein N of SARS-CoV Urbani [1]: 0.7; Binding of serum London to linear peptides of protein N of SARS-CoV Urbani [1]: 0.4; Binding of serum SARS-green to linear peptides of protein N of SARS-CoV Urbani [1]: 0.4; Binding of serum SARS-yellow to linear peptides of protein N of SARS-CoV Urbani [1]: 0.7 |
| YHGAIKLDDKDPQFK | 0.2 | 0.1 | 0.2 | 0.1 | 0.4 | 0.3 | 0.3 | 0.1 | 0.1 |  |  |  |  | 0.2 | 0.3 | 0.1 | 0.2 | 0.3 | 0.2 | 0.3 | Binding of serum 6 to linear peptides of protein N of SARS-CoV Urbani [1]: 0.2; Binding of serum 37 to linear peptides of protein N of SARS-CoV Urbani [1]: 0.8; Binding of serum 62 to linear peptides of protein N of SARS-CoV Urbani [1]: 1.6; Binding of serum London to linear peptides of protein N of SARS-CoV Urbani [1]: 0.7; Binding of serum SARS-green to linear peptides of protein N of SARS-CoV Urbani [1]: 0.9; Binding of serum SARS-yellow to linear peptides of protein N of SARS-CoV Urbani [1]: 0.7; Control Serum Blood-Bank Looped peptides [2]: 0.4; Control serum Blood-bank linear peptides [2]: 0.9; Control serum LUMC linear peptides [2]: 0.9; Control serum LUMC looped peptides [2]: 0.3 |
